Take `Cc1ccc(N(C)S(=O)(=O)c2cccs2)c2[nH]c(-c3ncc(CN4CCC(O)C4)s3)cc12` (stereo not shown) [Example 251, N-(2-{5-[(3-hydroxypyrrolidin-1-yl)methyl]-1,3-thiazol-2-yl}-4-methyl-1H-indol-7-yl)-N-methylthiophene-2-sulfonamide]: the melting point (usually the temperature, or range, at which the solid turns liquid) lay within 190 to 191 °C.

`CCOC(=O)CC1CN=C(c2cc3cccc(N(C)S(=O)(=O)c4cccs4)c3[nH]2)S1` (stereo not shown) [Example 283, ethyl (2-{7-[methyl(2-thienylsulfonyl)amino]-1H-indol-2-yl}-4,5-dihydro-1,3-thiazol-5-yl)acetate]: the melting point lay within 101 to 102 °C.

`CN(c1cccc2cc(C3=NCC(CC(=O)O)S3)[nH]c12)S(=O)(=O)c1cccs1` (stereo not shown) [Example 284, (2-{7-[methyl(2-thienylsulfonyl)amino]-1H-indol-2-yl}-4,5-dihydro-1,3-thiazol-5-yl)acetic acid]: the melting point was in the range of 232 to 234 °C. In turn, `CN(c1cccc2cc(C3=NCC(CCO)S3)[nH]c12)S(=O)(=O)c1cccs1` (stereo not shown) [Example 285, N-{2-[5-(2-hydroxyethyl)-4,5-dihydro-1,3-thiazol-2-yl]-1H-indol-7-yl}-N-methylthiophene-2-sulfonamide] had a melting point of 174 to 175 °C.

Take `CN1CCN(C(=O)CC2CN=C(c3cc4cccc(N(C)S(=O)(=O)c5cccs5)c4[nH]3)S2)CC1` (stereo not shown) [Example 286, N-methyl-N-(2-{5-[2-(4-methylpiperazin-1-yl)-2-oxoethyl]-4,5-dihydro-1,3-thiazol-2-yl}-1H-indol-7-yl)thiophene-2-sulfonamide]: the melting point lay in the range of 151 to 153 °C. Then `CN(c1cccc2cc(C3=NCC(CC(N)=O)S3)[nH]c12)S(=O)(=O)c1cccs1` (stereo not shown) [Example 287, 2-(2-{7-[methyl(2-thienylsulfonyl)amino]-1H-indol-2-yl}-4,5-dihydro-1,3-thiazol-5-yl)acetamide], with 193 to 194 °C; and `CN(c1cccc2cc(C3=NCC(CCN4C(=O)CCC4=O)S3)[nH]c12)S(=O)(=O)c1cccs1` (stereo not shown) [Example 288, N-(2-{5-[2-(2,5-dioxopyrrolidin-1-yl)ethyl]-4,5-dihydro-1,3-thiazol-2-yl}-1H-indol-7-yl)-N-methylthiophene-2-sulfonamide], with 189 to 191 °C. Then `CCOC(=O)CC1CN=C(c2cc3c(C)ccc(N(C)S(=O)(=O)c4cccs4)c3[nH]2)S1` (stereo not shown) [Example 290, ethyl (2-{4-methyl-7-[methyl(2-thienylsulfonyl)amino]-1H-indol-2-yl}-4,5-dihydro-1,3-thiazol-5-yl)acetate], with 109 to 110 °C; and `Cc1ccc(N(C)S(=O)(=O)c2cccs2)c2[nH]c(C3=NCC(CCO)S3)cc12` (stereo not shown) [Example 291, N-{2-[5-(2-hydroxyethyl)-4,5-dihydro-1,3-thiazol-2-yl]-4-methyl-1H-indol-7-yl}-N-methylthiophene-2-sulfonamide], with 168 to 169 °C; and `Cc1ccc(N(C)S(=O)(=O)c2cccs2)c2[nH]c(C3=NCC(CC(=O)O)S3)cc12` (stereo not shown) [Example 292, (2-{4-methyl-7-[methyl(2-thienylsulfonyl)amino]-1H-indol-2-yl}-4,5-dihydro-1,3-thiazol-5-yl)acetic acid], with 269 to 270 °C. In the case of `Cc1ccc(N(C)S(=O)(=O)c2cccs2)c2[nH]c(C3=NCC(CC(N)=O)S3)cc12` (stereo not shown) [Example 293, 2-(2-{4-methyl-7-[methyl(2-thienylsulfonyl)amino]-1H-indol-2-yl}-4,5-dihydro-1,3-thiazol-5-yl)acetamide] it was 120 to 121 °C; in that of `CN(C)C(=O)CC1CN=C(c2cc3cccc(N(C)S(=O)(=O)c4cccs4)c3[nH]2)S1` (stereo not shown) [Example 294, N,N-dimethyl-2-(2-{7-[methyl(2-thienylsulfonyl)amino]-1H-indol-2-yl}-4,5-dihydro-1,3-thiazol-5-yl)acetamide], 153 to 154 °C.

Molecule `O=S(=O)(Nc1cccc2cc(C3=NCC(CCO)S3)[nH]c12)c1cccs1` (stereo not shown) [Example 295, N-{2-[5-(2-hydroxyethyl)-4,5-dihydro-1,3-thiazol-2-yl]-1H-indol-7-yl}thiophene-2-sulfonamide] showed a melting point of 156 to 158 °C. Then `O=C(O)CC1CN=C(c2cc3cccc(NS(=O)(=O)c4cccs4)c3[nH]2)S1` (stereo not shown) [Example 296, (2-{7-[(2-thienylsulfonyl)amino]-1H-indol-2-yl}-4,5-dihydro-1,3-thiazol-5-yl)acetic acid], with > 240 °C (dec.). In the case of `NC(=O)CC1CN=C(c2cc3cccc(NS(=O)(=O)c4cccs4)c3[nH]2)S1` (stereo not shown) [Example 297, 2-(2-{7-[(2-thienylsulfonyl)amino]-1H-indol-2-yl}-4,5-dihydro-1,3-thiazol-5-yl)acetamide] it was 130 to 131 °C; in that of `CON(C)C(=O)CC1CN=C(c2cc3cccc(N(C)S(=O)(=O)c4cccs4)c3[nH]2)S1` (stereo not shown) [Example 299, N-methoxy-N-methyl-2-(2-{7-[methyl(2-thienylsulfonyl)amino]-1H-indol-2-yl}-4,5-dihydro-1,3-thiazol-5-yl)acetamide], 153 to 154 °C; in that of `CC(=O)CC1CN=C(c2cc3cccc(N(C)S(=O)(=O)c4cccs4)c3[nH]2)S1` (stereo not shown) [Example 300, N-methyl-N-{2-[5-(2-oxopropyl)-4,5-dihydro-1,3-thiazol-2-yl]-1H-indol-7-yl}thiophene-2-sulfonamide], 123 to 124 °C. In the case of `C=CC(=O)CC1CN=C(c2cc3cccc(N(C)S(=O)(=O)c4cccs4)c3[nH]2)S1` (stereo not shown) [Example 301, N-methyl-N-{2-[5-(2-oxobut-3-en-1-yl)-4,5-dihydro-1,3-thiazol-2-yl]-1H-indol-7-yl}thiophene-2-sulfonamide] it was 157 to 158 °C; in that of `CN1CCC(CC2CN=C(c3cc4cccc(N(C)S(=O)(=O)c5cccs5)c4[nH]3)S2)=N1` (stereo not shown) [Example 302, N-methyl-N-(2-{5-[(1-methyl-4,5-dihydro-1H-pyrazol-3-yl)methyl]-4,5-dihydro-1,3-thiazol-2-yl}-1H-indol-7-yl)thiophene-2-sulfonamide], 149 to 150 °C; in that of `CN(c1cccc2cc(C3=NCC(CN4CCSCC4)S3)[nH]c12)S(=O)(=O)c1ccccn1` (stereo not shown) [Example 303, N-methyl-N-{2-[5-(thiomorpholinomethyl)-4,5-dihydro-1,3-thiazol-2-yl]-1H-indol-7-yl}pyridine-2-sulfonamide], 142 to 144 °C. Consider `CN(c1cccc2cc(C3=NCC(CN4CC[S+]([O-])CC4)S3)[nH]c12)S(=O)(=O)c1ccccn1` (stereo not shown) [Example 304, N-methyl-N-(2-{5-[(1-oxidothiomorpholino)methyl]-4,5-dihydro-1,3-thiazol-2-yl}-1H-indol-7-yl)pyridine-2-sulfonamide], for which the melting point was 193 to 194 °C. In the case of `COc1ccccc1S(=O)(=O)N(C)c1cccc2cc(C3=NCC(CCO)S3)[nH]c12` (stereo not shown) [Example 306, N-{2-[5-(2-hydroxyethyl)-4,5-dihydro-1,3-thiazol-2-yl]-1H-indol-7-yl}-2-methoxy-N-methylbenzenesulfonamide] it was 154 to 155 °C; in that of `COc1ccccc1S(=O)(=O)N(C)c1cccc2cc(C3=NCC(CC(=O)O)S3)[nH]c12` (stereo not shown) [Example 307, (2-{7-[[(2-methoxyphenyl)sulfonyl](methyl)amino]-1H-indol-2-yl}-4,5-dihydro-1,3-thiazol-5-yl)acetic acid], 197 to 198 °C; in that of `COc1ccccc1S(=O)(=O)N(C)c1cccc2cc(C3=NCC(CC(N)=O)S3)[nH]c12` (stereo not shown) [Example 308, 2-(2-{7-[[(2-methoxyphenyl)sulfonyl](methyl)amino]-1H-indol-2-yl}-4,5-dihydro-1,3-thiazol-5-yl)acetamide], 227 to 228 °C.

Consider `COc1ccccc1S(=O)(=O)N(C)c1cccc2cc(C3=NCC(CC(=O)Nc4nnc[nH]4)S3)[nH]c12` (stereo not shown) [Example 310, 2-(2-{7-[[(2-methoxyphenyl)sulfonyl](methyl)amino]-1H-indol-2-yl}-4,5-dihydro-1,3-thiazol-5-yl)-N-4H-1,2,4-triazol-3-ylacetamide], for which the melting point was 208 to 209 °C.

Consider `COc1ccccc1S(=O)(=O)N(C)c1cccc2cc(C3=NCC(CC(=O)N4CCC(O)CC4)S3)[nH]c12` (stereo not shown) [Example 311, N-(2-{5-[2-(4-hydroxypiperidino)-2-oxoethyl]-4,5-dihydro-1,3-thiazol-2-yl}-1H-indol-7-yl)-2-methoxy-N-methylbenzenesulfonamide], for which the melting point is 166 to 167 °C. Then `CN(c1cccc2cc(C3=NCC(CC(=O)O)S3)[nH]c12)S(=O)(=O)c1ccccc1C(F)(F)F` (stereo not shown) [Example 314, {2-[7-(methyl{[2-(trifluoromethyl)phenyl]sulfonyl}amino)-1H-indol-2-yl]-4,5-dihydro-1,3-thiazol-5-yl}acetic acid], with 170 to 172 °C; and `CN(c1cccc2cc(C3=NCC(CCO)S3)[nH]c12)S(=O)(=O)c1ccccc1C(F)(F)F` (stereo not shown) [Example 315, N-{2-[5-(2-hydroxyethyl)-4,5-dihydro-1,3-thiazol-2-yl]-1H-indol-7-yl}-N-methyl-2-(trifluoromethyl)benzenesulfonamide], with 153 to 154 °C.

For `CN(c1cccc2cc(C3=NCC(CC(=O)N4CCC[C@H]4C(=O)O)S3)[nH]c12)S(=O)(=O)c1ccccc1C(F)(F)F` (stereo partly drawn) [Example 316, 1-({2-[7-(methyl{[2-(trifluoromethyl)phenyl]sulfonyl}amino)-1H-indol-2-yl]-4,5-dihydro-1,3-thiazol-5-yl}acetyl)-L-proline], the melting point is 132 to 135 °C. Then `CN(c1cccc2cc(C3=NCC(CN4CCS(=O)(=O)CC4)S3)[nH]c12)S(=O)(=O)c1ccccn1` (stereo not shown) [Example 318, N-(2-{5-[(1,1-dioxidothiomorpholino)methyl]-4,5-dihydro-1,3-thiazol-2-yl}-1H-indol-7-yl)-N-methylpyridine-2-sulfonamide], with 188 to 189 °C. `CN(c1cccc2cc(C3=NCC(CN4CC[S+]([O-])CC4)S3)[nH]c12)S(=O)(=O)c1nccn1C` (stereo not shown) [Example 320, N,1-dimethyl-N-(2-{5-[(1-oxidothiomorpholino)methyl]-4,5-dihydro-1,3-thiazol-2-yl}-1H-indol-7-yl)-1H-imidazole-2-sulfonamide] showed a melting point of 161 to 162 °C.

Values taken from patent US7777047B2, “Indole compound” (Takeda Pharmaceutical Company Limited, priority 2006, dated 2010).
